# Assay results taken from patent US20120258156A1, “SHAPED COMPOSITIONS FOR UNIFORM DELIVERY OF A FUNCTIONAL AGENT” (priority 2011, published 2012).
# Settings: salt at 5% by weight in about 10 g tablets with 75% to 95% by weight calcium hypochlorite; FIGS. 6-8
# Excerpt: The amount of calcium hypochlorite within each example ranged from 75% by weight to 95% by weight, while the various salts were included at 5% by weight, if at all.
row,SMILES,effect of additive on dissolution of the calcium hypochlorite
1,O=S(=O)([O-])[O-].[Mg+2] [magnesium sulfate],slow dissolution
2,O=C([O-])[O-].[Na+].[Na+] [sodium carbonate],slow dissolution
3,O=C([O-])[O-].[Ca+2] [calcium carbonate],increase the rate of dissolution
4,O=S(=O)([O-])[O-].[Ca+2] [calcium sulfate],slow dissolution
5,[Mg+2].[OH-].[OH-] [magnesium hydroxide],slow dissolution
